According to ChEMBL document CHEMBL3885881, “DrugMatrix”:

Organism: Rattus norvegicus
Format: toxicity, organism-based, Sprague-Dawley
Conditions: in vivo, sc, 24 h, route mini-PUMP - SUBCUTANEOUS, time 1 day, vehicle 100 % SALINE; for ABSOLUTE EOSINOPHIL / ABSOLUTE LYMPHOCYTE / ABSOLUTE MONOCYTE / ABSOLUTE SEGMENTED NEUTROPHIL / BASOPHIL / EOSINOPHIL / ERYTHROCYTE COUNT / HEMATOCRIT / HEMOGLOBIN / LEUKOCYTE COUNT / LYMPHOCYTE / MEAN CORPUSCULAR HEMOGLOBIN / MEAN CORPUSCULAR HEMOGLOBIN CONCENTRATION / MEAN CORPUSCULAR VOLUME / MONOCYTE / NEUTROPHIL / NUCLEATED RED BLOOD CELLS / PLATELET COUNT: tissue Blood; for ALANINE AMINOTRANSFERASE / ALBUMIN / ALKALINE PHOSPHATASE / ASPARTATE AMINOTRANSFERASE / BLOOD UREA NITROGEN / CARBON DIOXIDE / CHLORIDE / CHOLESTEROL / CREATININE / GLUCOSE / LACTATE DEHYDROGENASE / LIPASE / PHOSPHORUS / POTASSIUM / SODIUM / TOTAL BILIRUBIN / TOTAL PROTEIN / URIC ACID: tissue Plasma
[1] = 0 mg/kg, vehicle control, dose level Control
[2] = […], dose 0.065 mg/Kg, dose level High

Description: DrugMatrix - Regimen: Single

Structure (SMILES): C[C@]12CCC(=O)C=C1CC[C@@H]1[C@@H]2[C@@H](O)C[C@]2(C=O)[C@@H](C(=O)CO)CC[C@@H]12 [ALDOSTERONE]
- ABSOLUTE EOSINOPHIL [1]: 26.17 CELLS/uL
- ABSOLUTE LYMPHOCYTE [1]: 10985.83 CELLS/uL
- ABSOLUTE MONOCYTE [1]: 234.5 CELLS/uL
- ABSOLUTE SEGMENTED NEUTROPHIL [1]: 1753.5 CELLS/uL
- BASOPHIL [1]: 0%
- EOSINOPHIL [1]: 0.17%
- ERYTHROCYTE COUNT [1]: 5.64 x10E6/uL
- HEMATOCRIT [1]: 34.52%
- HEMOGLOBIN [1]: 12.68 G/DL
- LEUKOCYTE COUNT [1]: 13 x10E3/uL
- LYMPHOCYTE [1]: 84.5%
- MEAN CORPUSCULAR HEMOGLOBIN [1]: 22.5 pg
- MEAN CORPUSCULAR HEMOGLOBIN CONCENTRATION [1]: 36.78 G/DL
- MEAN CORPUSCULAR VOLUME [1]: 61.18 fL
- MONOCYTE [1]: 1.83%
- NEUTROPHIL [1]: 13.5%
- NUCLEATED RED BLOOD CELLS [1]: 0.17 /100WBC
- PLATELET COUNT [1]: 679.17 x10E3/uL
- ALANINE AMINOTRANSFERASE [1]: 42.67 u/L
- ALBUMIN [1]: 3.77 G/DL
- ALKALINE PHOSPHATASE [1]: 291.17 u/L
- ASPARTATE AMINOTRANSFERASE [1]: 74.5 u/L
- BLOOD UREA NITROGEN [1]: 15.33 mg/dL
- CARBON DIOXIDE [1]: 30 mmol/L
- CHLORIDE [1]: 100.83 MEQ/L
- CHOLESTEROL [1]: 65.33 mg/dL
- CREATININE [1]: 0.15 mg/dL
- GLUCOSE [1]: 179.83 mg/dL
- LACTATE DEHYDROGENASE [1]: 162.67 u/L
- LIPASE [1]: 8.5 u/L
- PHOSPHORUS [1]: 12.2 mg/dL
- POTASSIUM [1]: 5.73 MEQ/L
- SODIUM [1]: 144.7 MEQ/L
- TOTAL BILIRUBIN [1]: 0.15 mg/dL
- TOTAL PROTEIN [1]: 5.87 G/DL
- URIC ACID [1]: 1.93 mg/dL
- ABSOLUTE EOSINOPHIL [2]: 35 CELLS/uL
- ABSOLUTE LYMPHOCYTE [2]: 9989.33 CELLS/uL
- ABSOLUTE MONOCYTE [2]: 255.33 CELLS/uL
- ABSOLUTE SEGMENTED NEUTROPHIL [2]: 2453.67 CELLS/uL
- BASOPHIL [2]: 0%
- EOSINOPHIL [2]: 0.33%
- ERYTHROCYTE COUNT [2]: 5.74 x10E6/uL
- HEMATOCRIT [2]: 34.13%
- HEMOGLOBIN [2]: 12.57 G/DL
- LEUKOCYTE COUNT [2]: 12.73 x10E3/uL
- LYMPHOCYTE [2]: 78.33%
- MEAN CORPUSCULAR HEMOGLOBIN [2]: 21.87 pg
- MEAN CORPUSCULAR HEMOGLOBIN CONCENTRATION [2]: 36.77 G/DL
- MEAN CORPUSCULAR VOLUME [2]: 59.43 fL
- MONOCYTE [2]: 2.33%
- NEUTROPHIL [2]: 19%
- NUCLEATED RED BLOOD CELLS [2]: 0.33 /100WBC
- PLATELET COUNT [2]: 980 x10E3/uL
- ALANINE AMINOTRANSFERASE [2]: 37.33 u/L
- ALBUMIN [2]: 3.87 G/DL
- ALKALINE PHOSPHATASE [2]: 321.67 u/L
- ASPARTATE AMINOTRANSFERASE [2]: 76 u/L
- BLOOD UREA NITROGEN [2]: 11.67 mg/dL
- CARBON DIOXIDE [2]: 27.67 mmol/L
- CHLORIDE [2]: 101.33 MEQ/L
- CHOLESTEROL [2]: 65.33 mg/dL
- CREATININE [2]: 0.14 mg/dL
- GLUCOSE [2]: 206.67 mg/dL
- LACTATE DEHYDROGENASE [2]: 145.67 u/L
- LIPASE [2]: 9 u/L
- PHOSPHORUS [2]: 13.27 mg/dL
- POTASSIUM [2]: 5.08 MEQ/L
- SODIUM [2]: 146.53 MEQ/L
- TOTAL BILIRUBIN [2]: 0.17 mg/dL
- TOTAL PROTEIN [2]: 5.9 G/DL
- URIC ACID [2]: 2.27 mg/dL
